Entries after “also recorded” stand apart in the source; their conditions may differ.
Legend:
satellite cells [1] = assay: Cell yield time course 0–30 min after crush injury of right tibialis anterior, normal mice; type: in vivo, normal mice (C57BL/6); conditions: L-Arg 225 mg/kg ip 30 min before crush; 0–30 min
[2] = Muscle weight to body weight (edema) and haemorrhage after crush injury, normal mice; type: in vivo, normal mice (C57BL/6); conditions: ip treatment 30 min before crush; 0–30 min after injury
satellite cells [3] = assay: Isolated single muscle fiber culture, BrdU incorporation by satellite cells (activation); type: cell-based, C57 mice
Text: (§1) Flexor digitorum brevis (FDB) muscles from normal C57 mice were dissected from the foot, and connective tissue, vessels and nerves were cleaned off the muscle. Following a 3 hr collagenase digestion (0.2% in DMEM), and viewed on a dissecting microscope, the muscle was separated into three bundles and the overlying connective tissue was peeled off the bundles using sharp forceps. The individual fibers were then teased off the remnant tendon and into smaller bundles. Bundles were gently triturated to separate single fibers using a wide mouth glass pipette with a polished end. The fibers were plated onto vitrogen-coated 35 mm dishes and grown in 1.5 ml of DMEM+10% Horse Serum (HS)+1% antimyotics+0.1% gentamycin.
Live fibers exclude Ethidium bromide (EtBr), but 5 minutes after adding a myotoxin called marcaine (Bischoff R. (1990b). Development 109:943–952) to the medium, nuclei in fibers (and not in satellite cells) are fluorescent for EtBr. Hypercontraction occurs another 5–10 min later. Satellite cells exclude EtBr but take up an indicator of live cells, fluoresceine diacetate (FDA). Without this characterization, observations on satellite cells in a culture could include artefacts from membrane damage that initiates activation differently than any treatment under study. Satellite cells on our intact fibers were also quiescent after isolation. […] This conclusion is critical to any studies that propose to examine activation signals and their regulation.
Experimental Protocol: Fibers are isolated from flexor digitorum brevis (FDB) muscles on the plantar foot of 3 mice, then digested in collagenase (0.2% for 3 hr) and separated under a stereo microscope into small bundles (Yablonka-Reuveni, Z. and Rivera AJ. (1994). Dev. Biol. 164:588–603). […]
Fibers are incubated in 20% serum replacement medium (CSR; Yablonka-Reuveni, Z, and Rivera A J. (1994). Dev. Biol. 164:588–603). […] Activation is measured by counting labelled satellite cells per fiber (150–250 fibers/dish). […]

muscle fibers = assay: Marcaine / ethidium bromide staining and hypercontraction of isolated muscle fibers; type: cell-based, C57 mice
Text: as §1
Marcaine, an anaesthetic, was previously used to kill live fibers by adding it to a dish for 20–30 minutes (Cornelison, D. D. W., and Wold, B. J. (1997). Dev. Biol. 191:270–283) but the exact time of fiber death was never identified. Ethidium bromide (EtBr) is a fluorescent chemical which intercalates into the DNA of dead cells but is not taken up into live fibers. Media was mostly decanted from freshly plated fibers and the fibers were located using a microscope. 2–3 drops of either EtBr (2.5 μg/ml) in DMEM or Marcaine (0.05%)+EtBr (2.5 μg/ml) in DMEM were then added to the dish under continuous observation. Fiber hypercontraction was observed using a phase lens and the time course of EtBr nuclear staining was observed under UV light using a red filter. Photographs (ASA400 Fuji Colour Film) were taken to record staining of live, fixed, EtBr and Marcaine treated fibers and nuclei.

dystrophic muscle = assay: Central nucleation index (CNI) in LTA and diaphragm of treated mdx mice; type: in vivo; conditions: mdx mice treated from 4–8 weeks of age; for CNI (central nucleation index) in DIA: diaphragm; for CNI (central nucleation index) in LTA: left tibialis anterior
Text: A study of 4 groups (n≈10/group) of mdx dystrophic mice treated with placebo, deflazacort, deflazacort plus L-NAME (a NOS inhibitor), or deflazacort plus L-arginine (a […]). Deflazacort was given by daily injection (ip) and L-NAME and L-arginine were given systemically in the drinking water.
When a normal peripherally nucleated myofiber degenerates, muscle precursor cells proliferate to varying extents (Grounds Md., McGeachie J K. (1989). Exp. Cell Res 180:429–439) and fuse to form centrally nucleated myotubes. These myotubes grow, or even hypertrophy compared to the original distribution of fiber size in that muscle, and span the injured area, (Anderson J E, Ovalle W K, Bressler B H. (1987). Anat. Rec. 219:243–257; Anderson J E, Bressler B H, Ovalle W K. (1988). J. Muscle Res. Cell Motil. 9:499–515; Ontell M, Feng K C, Klueber K, Dunn R F, Taylor F. (1984). Anat. Rec. 208:159 174) but remain centrally nucleated; thus the central nucleation index (CNI) is a useful measure of accumulated damage and repair. (Karpati G, Carpenter S. (1988). Muscle Nerve. 11:795–803). The CNI is a measurement well known in the art (see Karpati and Carpenter. 1988. Muscle Nerve. 11:795–803 and Anderson et al. 1996. Muscle Nerve. 19:1576–1585).
CNI is the proportion of all fibers in a section or a muscle which show a centrally-located nucleus (often given as a percentage). Since muscular dystrophy causes ongoing damage of muscle fibers, the successful repair of those fibers is marked by centrally-nucleated fibers which accumulate as a proportion of total fibers. Unsuccessful repair can be viewed as a loss of fibers in a section of a whole muscle; this too can produce a change in the ratio of centrally nucleated to total number of fibers (expressed as a percentage).
In this experiment, muscle tissues are collected from the treated animals. LTA and diaphragm muscles were sectioned, and counts of fibers with central nuclei and fibers with peripheral nuclei were performed. The largest diameter of the muscle section in each of the two sections of each muscle was used for counting, for 10 mice per group (2 muscles per mouse).
This is similar for the tibialis anterior muscle (LTA) and diaphragm at the age shown in the graph (which is 8 weeks of age) and is reliably used to monitor the progressive effect of dystrophic fiber injury on a muscle over time as the disease progresses. CNI will increase with age in the mdx mice (until the plateau discussed above). Mice are treated from 4–8 weeks of age with placebo, Deflazacort, D+L-NAME or D+L-Arginine.

muscle precursor cells = conditions: deflazacort treatment on mdx mice; cited from earlier work
[4] = Marcaine (0.05%)+EtBr (2.5 μg/ml) in DMEM

Question: For N=C(N)NCCC[C@H](N)C(=O)O [L-Arg, L-arginine], which RSOL cell counts (satellite cells [1]) is on record?
Answer: The RSOL cell counts was “unchanged”.

Question: And the “RTA cell yield time course” value (satellite cells [1])?
Answer: Its value is “rose sharply at 5 min., and also stayed high”.

Question: And the “muscle weight profile (RTA relative to LTA; muscle weight as proportion of body weight)” value [2]?
Answer: Its value is “little or no change in muscle weight profile”.

Question: And the “concentration showing maximal activation” value (satellite cells [3]; L-Arginine 50–1000 nM, initial results)?
Answer: The value was 500 nM.

Question: What about the “satellite cell activation (marked by DNA synthesis)” value (satellite cells [3]; single normal fibers, L-arginine at various concentrations, 48 hr) of the same compound?
Answer: The value was “stimulates activation in a dose-dependent manner”.

Question: And the “satellite cell migration away from fibers” value (satellite cells [3]; single normal fibers, L-arginine, 48 hr)?
Answer: The value was “stimulates satellite cell migration away from fibers”.

Question: Which “time to EtBr staining of nuclei of live fibers after Marcaine” value (muscle fibers; [4]) does the source give for CCCCN1CCCCC1C(=O)Nc1c(C)cccc1C (stereo not drawn) [Marcaine] here?
Answer: The value was 60 to 90 s.

Question: What about the “time to fiber hypercontraction” value (muscle fibers; [4]) of the same compound?
Answer: The value was 5 to 10 min.

Question: And the “further time until hypercontraction after nuclei fluoresce” value (muscle fibers; marcaine added to the medium)?
Answer: The value was 5 to 10 min.

Question: What about the “time after adding marcaine at which nuclei in fibers are fluorescent for EtBr” value (muscle fibers; marcaine added to the medium) of the same compound?
Answer: Its value is 5 min.

Question: With CC(=O)OCC(=O)[C@@]12N=C(C)O[C@@H]1C[C@H]1[C@@H]3CCC4=CC(=O)C=C[C@]4(C)[C@H]3[C@@H](O)C[C@@]12C [deflazacort] as the compound, how does the “CNI (central nucleation index) in DIA” value (dystrophic muscle) read?
Answer: The value was “significantly lower CNI after deflazacort”.

Question: What about the “CNI (central nucleation index) in LTA” value (dystrophic muscle) of the same compound?
Answer: Its value is 0.4.

Question: And the “increase in precursor cell proliferation and formation of new muscle fibers” value (muscle precursor cells)?
Answer: Its value is 1.5–2 fold.

Question: With D+L-Arginine as the compound, how does the “CNI (central nucleation index) in DIA” value (dystrophic muscle) read?
Answer: Its value is “decrease the CNI of DIA from the level seen with D+L-NAME”.

Question: What about the “CNI (central nucleation index) in LTA” value (dystrophic muscle) of the same compound?
Answer: The value was “increase in LTA CNI from deflazacort alone; also recorded: still significantly lower than placebo treatment”.
